Laboratory results as given in ChEMBL document CHEMBL1201862, “PubChem BioAssay data set” (2004).
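1) Cells in 96-well plates. 2) Compound, 48 h, 5 concentrations. 3) Linear interpolation between surrounding doses. 4) Unreached endpoint = highest concentration. Here, GI50 denotes the concentration required for 50% inhibition of growth.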 The source made the active and inactive calls. Rule as the data show it: active = GI50 up to about 1.1 µM and inactive = higher.

Legend:
Assay in all cases: inhibition of tumour cell growth, NCI panel, 48 h
786-0 = test system: 786-0
RXF 393 = test system: RXF 393
BT-549 = test system: BT-549
LOX IMVI = test system: LOX IMVI
A549 = test system: A549
SR = test system: SR
HT-29 = test system: HT-29
A498 = test system: A498
SNB-19 = test system: SNB-19
OVCAR-8 = test system: OVCAR-8
ACHN = test system: ACHN
PC-3 = test system: PC-3
SK-MEL-5 = test system: SK-MEL-5
Malme-3M = test system: Malme-3M
NCI-H226 = test system: NCI-H226
SN12C = test system: SN12C
MOLT-4 = test system: MOLT-4
HL-60 = test system: HL-60
MDA-MB-231 = test system: MDA-MB-231
NCI/ADR-RES = test system: NCI/ADR-RES
NCI-H23 = test system: NCI-H23
SF-295 = test system: SF-295
OVCAR-3 = test system: OVCAR-3
COLO 205 = test system: COLO 205
MCF7 = test system: MCF7
CAKI-1 = test system: CAKI-1
HOP-62 = test system: HOP-62
EKVX = test system: EKVX
UACC-257 = test system: UACC-257
IGROV-1 = test system: IGROV-1
KM12 = test system: KM12
HCC 2998 = test system: HCC 2998
DU-145 = test system: DU-145
OVCAR-5 = test system: OVCAR-5
HCT-116 = test system: HCT-116
Hs-578T = test system: Hs-578T
CCRF-CEM = test system: CCRF-CEM
HCT-15 = test system: HCT-15
K562 = test system: K562
NCI-H522 = test system: NCI-H522
NCI-H460 = test system: NCI-H460
RPMI-8226 = test system: RPMI-8226
SF-268 = test system: SF-268
SF-539 = test system: SF-539
MDA-MB-435 = test system: MDA-MB-435
SW-620 = test system: SW-620
U-251 = test system: U-251
MDA-N = test system: MDA-N
UO-31 = test system: UO-31
TK-10 = test system: TK-10
UACC-62 = test system: UACC-62
SK-MEL-2 = test system: SK-MEL-2
T47D = test system: T47D
SK-MEL-28 = test system: SK-MEL-28
OVCAR-4 = test system: OVCAR-4
SK-OV-3 = test system: SK-OV-3
M14 = test system: M14
HOP-92 = test system: HOP-92
SNB-75 = test system: SNB-75

**Q.** `COc1cc(C2c3cc4c(cc3OC(C)(O)C2C)OCO4)cc(OC)c1OC` (stereo not drawn) was tested. Which GI50 (786-0) did it give?
**A.** 0.708 µM (active)

**Q.** And the GI50 (RXF 393)?
**A.** 0.211 µM (active)

**Q.** And the GI50 (BT-549)?
**A.** 5.42 µM (inactive)

**Q.** What about the GI50 (LOX IMVI) of the same compound?
**A.** 0.692 µM (active)

**Q.** And the GI50 (A549)?
**A.** 0.197 µM (active)

**Q.** What about the GI50 (SR) of the same compound?
**A.** 0.379 µM (active)

**Q.** What about the GI50 (HT-29) of the same compound?
**A.** 0.344 µM (active)

**Q.** What about the GI50 (A498) of the same compound?
**A.** 13.9 µM (inactive)

**Q.** What about the GI50 (SNB-19) of the same compound?
**A.** 0.342 µM (active)

**Q.** What about the GI50 (OVCAR-8) of the same compound?
**A.** 0.217 µM (active)

**Q.** What about the GI50 (ACHN) of the same compound?
**A.** 0.938 µM (active)

**Q.** What about the GI50 (PC-3) of the same compound?
**A.** 0.306 µM (active)

**Q.** What about the GI50 (SK-MEL-5) of the same compound?
**A.** 0.154 µM (active)

**Q.** And the GI50 (Malme-3M)?
**A.** 0.407 µM (active)

**Q.** What about the GI50 (NCI-H226) of the same compound?
**A.** 1.31 µM (inactive)

**Q.** And the GI50 (SN12C)?
**A.** 0.505 µM (active)

**Q.** What about the GI50 (MOLT-4) of the same compound?
**A.** 0.513 µM (active)

**Q.** And the GI50 (HL-60)?
**A.** 0.182 µM (active)

**Q.** What about the GI50 (MDA-MB-231) of the same compound?
**A.** 0.433 µM (active)

**Q.** And the GI50 (NCI/ADR-RES)?
**A.** 0.316 µM (active)

**Q.** What about the GI50 (NCI-H23) of the same compound?
**A.** 0.745 µM (active)

**Q.** What about the GI50 (SF-295) of the same compound?
**A.** 0.304 µM (active)

**Q.** What about the GI50 (OVCAR-3) of the same compound?
**A.** 0.316 µM (active)

**Q.** What about the GI50 (COLO 205) of the same compound?
**A.** 0.49 µM (active)

**Q.** What about the GI50 (MCF7) of the same compound?
**A.** 0.375 µM (active)

**Q.** What about the GI50 (CAKI-1) of the same compound?
**A.** 12.2 µM (inactive)

**Q.** And the GI50 (HOP-62)?
**A.** 0.335 µM (active)

**Q.** What about the GI50 (EKVX) of the same compound?
**A.** 28.6 µM (inactive)

**Q.** And the GI50 (UACC-257)?
**A.** 65.2 µM (inactive)

**Q.** And the GI50 (IGROV-1)?
**A.** 0.625 µM (active)

**Q.** And the GI50 (KM12)?
**A.** 0.697 µM (active)

**Q.** What about the GI50 (HCC 2998) of the same compound?
**A.** 0.646 µM (active)

**Q.** And the GI50 (DU-145)?
**A.** 0.456 µM (active)

**Q.** What about the GI50 (OVCAR-5) of the same compound?
**A.** > 100 µM (inactive)

**Q.** And the GI50 (HCT-116)?
**A.** 0.333 µM (active)

**Q.** And the GI50 (Hs-578T)?
**A.** 0.449 µM (active)

**Q.** And the GI50 (CCRF-CEM)?
**A.** 0.406 µM (active)

**Q.** What about the GI50 (HCT-15) of the same compound?
**A.** 0.4 µM

**Q.** And the GI50 (K562)?
**A.** 0.274 µM (active)

**Q.** What about the GI50 (NCI-H522) of the same compound?
**A.** 0.235 µM (active)

**Q.** And the GI50 (NCI-H460)?
**A.** 0.406 µM (active)

**Q.** And the GI50 (RPMI-8226)?
**A.** 0.237 µM (active)

**Q.** And the GI50 (SF-268)?
**A.** 2.69 µM (inactive)

**Q.** What about the GI50 (SF-539) of the same compound?
**A.** 0.277 µM (active)

**Q.** What about the GI50 (MDA-MB-435) of the same compound?
**A.** 0.118 µM (active)

**Q.** And the GI50 (SW-620)?
**A.** 0.349 µM (active)

**Q.** And the GI50 (U-251)?
**A.** 0.443 µM (active)

**Q.** What about the GI50 (MDA-N) of the same compound?
**A.** 0.0555 µM (active)

**Q.** What about the GI50 (UO-31) of the same compound?
**A.** 0.857 µM (active)

**Q.** What does the source list for `c1ccc(/N=C(/Nc2ccccc2)N2CCCCC2)cc1`?
**A.** GI50 (786-0): > 100 µM (inactive); GI50 (BT-549): > 100 µM (inactive); GI50 (LOX IMVI): 40.3 µM (inactive); GI50 (TK-10): > 100 µM (inactive); GI50 (A549): > 100 µM (inactive); GI50 (SR): 73.6 µM (inactive); GI50 (HT-29): 39.6 µM (inactive); GI50 (UACC-62): 77.4 µM (inactive); GI50 (SNB-19): > 100 µM (inactive); GI50 (OVCAR-8): > 100 µM (inactive); GI50 (ACHN): > 100 µM (inactive); GI50 (PC-3): 80.2 µM (inactive); GI50 (SK-MEL-5): > 10 µM (inactive); GI50 (Malme-3M): 50.2 µM (inactive); GI50 (SK-MEL-2): > 100 µM (inactive); GI50 (NCI-H226): > 100 µM (inactive); GI50 (SN12C): > 100 µM (inactive); GI50 (MOLT-4): 51.5 µM (inactive); GI50 (HL-60): 24.7 µM (inactive); GI50 (NCI/ADR-RES): > 100 µM (inactive); GI50 (NCI-H23): > 100 µM (inactive); GI50 (SF-295): 54.7 µM (inactive); GI50 (T47D): > 100 µM (inactive); GI50 (OVCAR-3): > 100 µM (inactive); GI50 (SK-MEL-28): 74 µM (inactive); GI50 (COLO 205): 59 µM (inactive); GI50 (OVCAR-4): > 100 µM (inactive); GI50 (MCF7): 68.7 µM (inactive); GI50 (CAKI-1): > 100 µM (inactive); GI50 (HOP-62): > 100 µM (inactive); GI50 (EKVX): > 100 µM (inactive); GI50 (UACC-257): 21.6 µM (inactive); GI50 (IGROV-1): 93.5 µM (inactive); GI50 (SK-OV-3): 74.1 µM (inactive); GI50 (KM12): 72.1 µM (inactive); GI50 (DU-145): > 10 µM (inactive); GI50 (OVCAR-5): > 100 µM (inactive); GI50 (HCT-116): 38.6 µM (inactive); GI50 (M14): 22.3 µM (inactive); GI50 (HOP-92): 92 µM (inactive); GI50 (Hs-578T): 18.7 µM (inactive); GI50 (CCRF-CEM): > 100 µM (inactive); GI50 (HCT-15): > 100 µM; GI50 (K562): 40 µM (inactive); GI50 (NCI-H522): 67.3 µM (inactive); GI50 (NCI-H460): 73.3 µM (inactive); GI50 (RPMI-8226): 97.9 µM (inactive); GI50 (SF-268): > 100 µM (inactive); GI50 (MDA-MB-435): 41.6 µM (inactive); GI50 (SW-620): > 100 µM (inactive); GI50 (U-251): > 100 µM (inactive); GI50 (MDA-N): 43.3 µM (inactive); GI50 (SNB-75): 16.7 µM (inactive); GI50 (UO-31): 49.3 µM (inactive)
